This is an account of results in US12390467B2, “Necroptosis inducers or autophagy inhibitors or a combination thereof” (The University of Toledo, priority 2018, dated 2025).

Holding throughout (type): cell-based
Series [1] relates to MDA-MB231 (TNBC cell line). The experiment in a line: MTT cell viability assay, MDA-MB231. Conditions: Homo sapiens, MDA-MB-231, 72 h, read-out: IC50 ± SD, MDA-MB231. Here is the method: (§1) The following cancer and non-cancer cell lines were used in the initial cytotoxicity screening of the TPH104 compounds: triple negative breast cancer (TNBC): MDA-MB468, MDA-MB 231, and BT-20; non-TNBC: MCF-7 and ZR-75-1; ovarian: Ov2008; prostate: DU145; colon: HCT-116, S1, and LOVO; lung: H460; normal kidney: HEK-293; normal breast: HMEC; and normal colon: CRL-1459. All cells were cultured in Dulbecco's modified Eagle medium (DMEM), supplemented with 10% fetal bovine serum (FBS), and 1% penicillin/streptomycin (P/S). Cells were allowed to grow as adherent monolayers in T25 flasks in a humidified incubator with 5% CO2 at 37° C. for a period of 24 h, unless otherwise specified for certain experiments.
(§2) The MTT assay was used to determine the cytotoxicity of all of the compounds. Briefly, in a 96-well flat-bottom cell culture plate, the cells were seeded at a density between 3-5×10^3 cells/well (180 μl in each well) and incubated for 24 h (a hemocytometer was used for cell counting). The next day, the cells were incubated with different concentrations of the nine compounds (0, 0.1, 0.3, 1, 3, 10, 30, and 100 μM) for 72 h. After 72 h, 20 μl of 5 mg/ml of 3-(4,5-dimethylthiazol-2-yl)-2,5-diphenyltetrazolium bromide (MTT) was added to the plate and incubated with the cells for 3 h at 37° C. In this experiment, the living cells will reduce the soluble MTT dye to non-soluble purple formazan crystals. Following incubation, the media containing MTT removed via suction and 100 μL of 100% dimethyl sulfoxide (DMSO) was added to dissolve the formazan crystals. Subsequently, the plate was shaken for 2 minutes and the absorbance was measured at a wavelength of 570 nm using a SpectraMax iD3 Multi-Mode Microplate Reader (Molecular Devices, Sunnyvale, CA). The IC50 values of each compound were calculated and used to determine the selectivity ratio (IC50 in normal cells/IC50 in cancer cells) of each compound as previously described. Based on the results obtained from these experiments, the compound TPH104, which had the lowest IC50 value, was selected for further experiments.

The test system of series [2] is ZR-75-1 (non-TNBC cell line). The experiment in a line: MTT cell viability assay, ZR-75-1. The conditions noted are these: read-out: IC50 ± SD, ZR-75-1. Here is the method:
as §1, §2
In general terms: Tetrazolium assays rely on reduction of a dye to a coloured formazan, in cell work by metabolically active cells.

Another series has as its system BT-20 cells. The experiment in a line: incuCyte live cell imaging of proliferation. The conditions noted are these: 0.1, 1, 3, and 10 μM. An excerpt: FIG. 4: Representative images of the anti-proliferative effect of TPH104 at different concentrations and different time points in BT-20 cells. The time lapse images were taken using an incuCyte live cell imaging instrument (10×). **p<0.01, ***p<0.001, ****p<0.0001 compared to the control.

For a further series, the system named is TNBC cell lines. The experiment in a line: Cytotoxicity screening (MTT), TNBC cell lines overall. The conditions noted are these: TNBC cell lines overall.
From the text: To this end, several commercial databases were searched, and 17 similar molecules from the VitasM database were retrieved with considerable structural diversity in terms of the substitution on the aryl ring A attached to the thienopyrimidine scaffold and aryl ring B attached to hydrazino moiety. Further, the biological evaluation of the 17 molecules sheds light on the structural features deemed important for the selective cytotoxicity shown by this class of molecules. With this understanding, the 17 molecules were subjected to a screening protocol comprising of two TNBC, two non-TNBC, and one normal cell lines.
as §1, §2

Series [3] concerns MDA-MB468, BT-20, and MDA-MB231. Kind of series: Trans-well migration assay. Conditions: 1 μM or 10 μM, 24 h. Here is the method: This assay was used to assess the migration and invasiveness of TNBC cells. In this assay, 24 well-plates with 24 well inserts of 8 μm pore size, (Corning, Cambridge, MA, USA), were used. The inserts were pre-coated with growth-factor reduced matrigel (1:40) and added to each well, forming two chambers (upper and lower). Briefly, cells were seeded at a density of 10,000 cells/well in the upper chamber of the inserts. The lower chamber was filled with cell-free DMEM medium supplemented with 10% FBS and 1% P/S. The next day, cells were incubated with 0.1, 1, or 10 μM of TPH104 or vehicle for 24 h to allow the cells to migrate through the porous membrane into the lower chamber. Following incubation, cotton swabs were used to wipe away the non-migrated, stationary cells in the upper chamber. The migrated cells were fixed with 100% methanol and stained with 0.1% crystal violet dye. The migrated cells were then viewed, pictured and counted using an EVOS-FLC microscope as previously reported.

In series [4] the target is T1, ABCG2 transporter (S1M180 cells) (Homo sapiens, UniProt Q9UNQ0, R482G).
T1 construct: intracellular accumulation of rhodamine 123 in ABCG2 overexpressing S1M180 cells; endogenous in cells; host or cells: S1M180 colon cancer cells
The experiment in a line: Intracellular accumulation of rhodamine 123. Conditions: 0.05-1 μM. Here is the method:
FIG. 26: TPH104 reverses multidrug resistance by blocking the function of ABCG2 transporter. The effect of TPH104 and nilotinib on the intracellular accumulation of rhodamine 123 in ABCG2 overexpressing S1M180 cells. The top image is a graph showing the concentration-dependent increase in the accumulation of rhodamine 123 in S1M180 cells incubated with TPH104. Red filled=control; sky blue filled=0.05 μM; brown filled=0.1 μM; dark blue filled=0.3 μM; lime green filled=1 μM of TPH104, respectively, and olive green=nilotinib, 5 μM. The bottom image is a bar graph representing the relative rhodamine 123 accumulation levels. The data shown as means±SEM of three independent experiments. *p<0.05; ***p<0.001 compared to the control.

In series [5] the test system is S1M180 and H460-MX20 ABCG2-overexpressing cells vs parental S1 and H460. Kind of series: Collateral sensitivity in ABCG2-overexpressing versus parental cells. The conditions noted are these: 0.3, 3, and 30 μM. An excerpt: The data is shown as means±SEM of three independent experiments.

Where two headings read alike, the source gives them in different places. Where only a bound is given, the exact number is not on record here.

T1 sequence (Q9UNQ0 whole entry R482G, one chain of several): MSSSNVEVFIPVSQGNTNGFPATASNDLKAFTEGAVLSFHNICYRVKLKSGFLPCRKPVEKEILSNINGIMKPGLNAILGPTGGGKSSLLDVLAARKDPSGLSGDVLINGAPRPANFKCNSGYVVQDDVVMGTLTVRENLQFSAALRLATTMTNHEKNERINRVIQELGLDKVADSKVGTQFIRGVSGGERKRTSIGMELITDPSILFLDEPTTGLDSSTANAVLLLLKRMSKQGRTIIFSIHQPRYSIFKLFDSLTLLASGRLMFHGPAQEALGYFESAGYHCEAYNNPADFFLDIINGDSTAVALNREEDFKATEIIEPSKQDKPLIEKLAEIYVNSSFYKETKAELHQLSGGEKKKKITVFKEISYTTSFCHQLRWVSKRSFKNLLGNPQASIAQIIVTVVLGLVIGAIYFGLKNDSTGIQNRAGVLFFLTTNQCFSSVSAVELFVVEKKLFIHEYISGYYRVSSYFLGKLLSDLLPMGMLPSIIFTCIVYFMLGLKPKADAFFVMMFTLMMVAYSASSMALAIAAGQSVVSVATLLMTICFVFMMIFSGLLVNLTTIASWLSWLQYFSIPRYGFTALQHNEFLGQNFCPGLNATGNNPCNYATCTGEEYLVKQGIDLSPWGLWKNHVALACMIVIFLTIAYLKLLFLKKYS

As a reminder, the IC50 is the point on the concentration scale where inhibition reaches its midpoint. For `COc1ccc(O)c(/C=N/Nc2ncnc3scc(-c4ccc(C)cc4)c23)c1` [TPH104], the IC50 in series [1] is 0.19 µM; in series [2] (72 h), 8.56 ± 1.95 µM; in series [2] (Homo sapiens, ZR-75-1, 72 h), 8.6 µM; in the series on TNBC cell lines, less than 1 µM. Also, the BT-20 cell proliferation entry in the series with BT-20 cells is “concentration-dependent and time-dependent decrease”. Moreover, the “migration of TNBC cells” value in series [3] was “significantly decreased”. In series [4], the “intracellular accumulation of rhodamine 123” value is “increased”. In addition, the “ABCG2 transporter mediated multidrug resistance, collateral sensitivity” value in series [5] is given as “collateral sensitivity”.
